# Assays:
# human CB1 receptors = human CB1 receptors (Homo sapiens (Human), UniProt P21554); assay: functional cAMP assay, CHO cells expressing human CB1; format: cell-based; conditions: functional cAMP assay, CHO cells expressing human CB1; read-out: Human CB1 EC50
# How it was run: (§1)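 Readout: TR-FRET cAMP detection at 730 and 645 nm with 355 nm excitation, quantified from a standard curve spanning 10 μM to 0.13 nM cAMP. Human CB1- or CB2-expressing CHO cells were exposed to compound for 30 min at 30 °C in KRB buffer containing 1 mM IBMX. EC50 derived.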
# human CB2 receptors = human CB2 receptors (Homo sapiens (Human), UniProt P34972); assay: functional cAMP assay, CHO cells expressing human CB2; format: cell-based; conditions: read-out: Human CB2 EC50
# Chain of human CB2 receptors (P34972 whole entry): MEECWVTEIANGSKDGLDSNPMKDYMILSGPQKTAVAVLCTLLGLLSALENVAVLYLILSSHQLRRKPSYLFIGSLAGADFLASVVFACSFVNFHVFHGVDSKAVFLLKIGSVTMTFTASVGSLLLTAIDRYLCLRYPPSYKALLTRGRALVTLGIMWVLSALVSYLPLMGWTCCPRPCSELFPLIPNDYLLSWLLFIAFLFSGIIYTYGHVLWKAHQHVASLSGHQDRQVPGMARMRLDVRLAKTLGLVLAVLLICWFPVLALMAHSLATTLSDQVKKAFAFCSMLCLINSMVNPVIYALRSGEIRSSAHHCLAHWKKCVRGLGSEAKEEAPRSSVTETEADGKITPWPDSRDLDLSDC
# How it was run: as §1
# Chain of human CB1 receptors (P21554 whole entry): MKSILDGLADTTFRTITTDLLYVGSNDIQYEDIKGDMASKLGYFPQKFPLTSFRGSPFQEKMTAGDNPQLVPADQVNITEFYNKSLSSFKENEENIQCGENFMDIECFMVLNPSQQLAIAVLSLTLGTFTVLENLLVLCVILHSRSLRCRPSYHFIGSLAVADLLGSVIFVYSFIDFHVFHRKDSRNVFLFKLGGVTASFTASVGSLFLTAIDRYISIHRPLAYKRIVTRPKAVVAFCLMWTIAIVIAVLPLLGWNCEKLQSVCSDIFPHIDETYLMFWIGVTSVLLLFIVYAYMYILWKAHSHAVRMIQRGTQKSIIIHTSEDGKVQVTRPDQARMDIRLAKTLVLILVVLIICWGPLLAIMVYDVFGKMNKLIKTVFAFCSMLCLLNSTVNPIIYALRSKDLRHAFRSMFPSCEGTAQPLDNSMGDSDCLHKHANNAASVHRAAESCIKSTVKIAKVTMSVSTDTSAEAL
smiles,measurement,setting,value
"CNC(=O)C(NC(=O)c1cc(O[C@@H](C)C(F)(F)F)c(C2CC2)cn1)C(C)(C)O (stereo partly drawn) [Example 252, 5-cyclopropyl-N-[3-hydroxy-3-methyl-1-(methylamino)-1-oxobutan-2-yl]-4-[(2S)-1,1,1-trifluoropropan-2-yl]oxypyridine-2-carboxamide]",EC50,human CB1 receptors,> 10 µM
same,EC50,human CB2 receptors,344 nM
"CNC(=O)C(NC(=O)c1cc(O[C@@H](C)C(F)(F)F)c(C2CC2)cn1)C(C)(C)O (stereo partly drawn) [Example 253, 5-cyclopropyl-N-[3-hydroxy-3-methyl-1-(methylamino)-1-oxobutan-2-yl]-4-[(2S)-1,1,1-trifluoropropan-2-yl]oxypyridine-2-carboxamide]",EC50,human CB1 receptors,> 10 µM
same,EC50,human CB2 receptors,1.9 nM
"Cc1nc(C(NC(=O)c2cc(O[C@@H](C)C(F)(F)F)c(C3CC3)cn2)C2(C)COC2)no1 (stereo partly drawn) [Example 254, 5-cyclopropyl-N-[(5-methyl-1,2,4-oxadiazol-3-yl)-(3-methyloxetan-3-yl)methyl]-4-[(2S)-1,1,1-trifluoropropan-2-yl]oxypyridine-2-carboxamide]",EC50,human CB1 receptors,> 10 µM
same,EC50,human CB2 receptors,6.5 nM
"Cc1nc(C(NC(=O)c2cc(O[C@@H](C)C(F)(F)F)c(C3CC3)cn2)C2(C)COC2)no1 (stereo partly drawn) [Example 255, 5-cyclopropyl-N-[(5-methyl-1,2,4-oxadiazol-3-yl)-(3-methyloxetan-3-yl)methyl]-4-[(2S)-1,1,1-trifluoropropan-2-yl]oxypyridine-2-carboxamide]",EC50,human CB1 receptors,> 10 µM
same,EC50,human CB2 receptors,6.7 nM
"CC(C)(C)C(NC(=O)c1cc(OCC(F)(F)F)c(N2CC(F)(F)C2)cn1)C(N)=O (stereo not shown) [Example 256, N-(1-amino-3,3-dimethyl-1-oxobutan-2-yl)-5-(3,3-difluoroazetidin-1-yl)-4-(2,2,2-trifluoroethoxy)pyridine-2-carboxamide]",EC50,human CB1 receptors,> 10 µM
same,EC50,human CB2 receptors,13.2 nM
"CC(C)(C)C(NC(=O)c1cc(OCC2CC2)c(N2CC(F)(F)C2)cn1)C(N)=O (stereo not shown) [Example 257, N-(1-amino-3,3-dimethyl-1-oxobutan-2-yl)-4-(cyclopropylmethoxy)-5-(3,3-difluoroazetidin-1-yl)pyridine-2-carboxamide]",EC50,human CB1 receptors,> 10 µM
same,EC50,human CB2 receptors,3 nM
"C[C@H](Oc1cc(C(=O)NC(C)(CC(N)=O)C2CC2)ncc1C1CC1)C(F)(F)F (stereo partly drawn) [Example 258, N-(4-amino-2-cyclopropyl-4-oxobutan-2-yl)-5-cyclopropyl-4-[(2S)-1,1,1-trifluoropropan-2-yl]oxypyridine-2-carboxamide]",EC50,human CB1 receptors,> 10 µM
same,EC50,human CB2 receptors,13 nM
"C[C@H](Oc1cc(C(=O)NC(C)(CC(N)=O)C2CC2)ncc1C1CC1)C(F)(F)F (stereo partly drawn) [Example 259, N-(4-amino-2-cyclopropyl-4-oxobutan-2-yl)-5-cyclopropyl-4-[(2S)-1,1,1-trifluoropropan-2-yl]oxypyridine-2-carboxamide]",EC50,human CB1 receptors,> 10 µM
same,EC50,human CB2 receptors,0.5 nM
"NC(=O)CC1(NC(=O)c2cc(OCC(F)(F)F)c(N3CC(F)(F)C3)cn2)CS(=O)(=O)C1 [Example 264, N-[3-(2-amino-2-oxoethyl)-1,1-dioxothietan-3-yl]-5-(3,3-difluoroazetidin-1-yl)-4-(2,2,2-trifluoroethoxy)pyridine-2-carboxamide]",EC50,human CB1 receptors,> 10 µM
same,EC50,human CB2 receptors,178 nM
"C[C@H](Oc1cc(C(=O)NC2(CC(N)=O)CS(=O)(=O)C2)ncc1C1(F)COC1)C(F)(F)F [Example 265, N-[3-(2-amino-2-oxoethyl)-1,1-dioxothietan-3-yl]-5-(3-fluorooxetan-3-yl)-4-[(2S)-1,1,1-trifluoropropan-2-yl]oxypyridine-2-carboxamide]",EC50,human CB1 receptors,> 10 µM
same,EC50,human CB2 receptors,102 nM
"C[C@H](Oc1cc(C(=O)NC2(CC(N)=O)CS(=O)(=O)C2)ncc1C1CC1)C(F)(F)F [Example 266, N-[3-(2-amino-2-oxoethyl)-1,1-dioxothietan-3-yl]-5-cyclopropyl-4-[(2S)-1,1,1-trifluoropropan-2-yl]oxypyridine-2-carboxamide]",EC50,human CB1 receptors,> 10 µM
same,EC50,human CB2 receptors,1.6 nM
